Test results: US20230151021A1, “Compounds and Compositions for Treating Hematologic Malignancies” (priority 2020, published 2023)
Like-named read-outs stand apart in the source and are kept apart here.

Key:
[1] = MetID profile in mouse liver microsomes; assay type: in vitro ADME; conditions: 60 min of incubation
Method: In order to determine if 26 induces liver microsomal metabolism changes, the MetID profile of 26 in mouse liver microsomes was investigated under the same conditions as for brusatol. […] However, 87% of 26 (area %) was detected after 60 min of incubation while five identified metabolites were all in relatively small percentages.

SU-DHL-4 cells [2] = assay: Cell viability assay (CellTiter-Glo luminescence); assay type: cell-based; conditions: Homo sapiens, SU-DHL-4, 48 h, read-out: viability of cells inhibited
HL-60 cells = assay: Cell cycle assay (PI staining, flow cytometry); assay type: cell-based, human; conditions: HL-60, 100 nM, 48 hours
Method: (§1) 5 million cells were harvested, fixed with 80% ethanol for 2 hours or overnight at −20° C., then washed with PBS and incubated with Propidium iodide (PI) staining buffer (0.5 mg/ml propidium iodide in PBS with 50 μg/ml RNase A) for 30 minutes at room temperature. The stained cells were resuspended in PBS and analyzed on a FACSCalibur system (Becton Dickinson, San Jose, Calif., USA) using FlowJo software (TreeStar, San Carlos, Calif., USA).

K562 cells = assay: Cell cycle assay (PI staining, flow cytometry); assay type: cell-based, human; conditions: K562, 100 nM, 48 hours
Method: as §1

SU-DHL-4 cells [3] = assay: Cell cycle assay (PI staining, flow cytometry); assay type: cell-based, human; conditions: SU-DHL-4, 100 nM, 48 hours
Method: as §1

Raji cells [4] = assay: Cell cycle assay (PI staining, flow cytometry); assay type: cell-based, human; conditions: 100 nM, 48 hours
Method: as §1

Raji cells [5] = assay: cells; assay type: cell-based, human; conditions: for activity on viability of Raji cells (in words): 100 nM for 72 h
[6] = system: HL60, K562, MOLM14 and SU-DHL-4 cell lines; assay: IC50 of Brusatol in less and more sensitive cell lines; assay type: cell-based, human; conditions: 72 hours
Method: FIGS. 5A-5F: PI3K family of proteins is crucial for Brusatol-mediated inhibitory effects. FIG. 5A: IC50 assays of Brusatol were determined in the indicated cancer cells. All of the cells were treated for 72 hours. […] NS, not significant. […] Then cells were fixed and stained with PI. Flow cytometry assays were performed to determine cell cycle progression. The subG1 population in cells was labeled as the percentage. […] FIG. 5F: The described cells were incubated with Brusatol (0, 50 nM, 100 nM) for different periods (0, 12 hours, 24 hours).

Plasma stability [7] = assay: Plasma stability
Plasma stability [8] = assay: Plasma stability; remark: listed apart in the source
[9] = Stability in simulated gastric fluid
AKT1, GSK3, and mTOR = assay: Western blot of PI3K/AKT regulated signaling proteins; assay type: cell-based, human; conditions: Raji and SU-DHL-4 cells; 0, 50 nM, 100 nM; 0, 12 hours, 24 hours
Method: Western blot analyses were performed as previously described. Briefly, total cell lysates were separated by SDS-PAGE gel and transferred to nitrocellulose membrane. The membranes were blocked with 5% non-fat milk, probed with specific antibodies, and visualized using the Odyssey scanner (LiCor Inc., Lincoln, Nebr.).

LCL1 cells = assay: Cell viability assay (CellTiter-Glo luminescence); assay type: cell-based; conditions: Homo sapiens; LCL1, 5000 cells, 72 hours; read-out: half-maximal inhibitory concentration (IC50)
[10] = Stability in simulated intestinal fluid
NOD/SCID mice = assay: In vivo toxicity test; conditions: 24 days; for survival: 4 mice per group
Method: […]; 4 mice per group) were intraperitoneally injected with a maximum dose of […] of Brusatol, #15 or #26 compound every other day (three times per week). The survival rate was recorded to monitor the tolerance of the compounds in these mice.
[…]. Six-week-old male NOD.CB17PrkdcSCID/J (NOD/SCID) mice (Jackson Labs, Bar Harbor, Me., USA; 4 mice per group) were intraperitoneally injected with a dose of 5 mg/kg of one of three compounds—brusatol, 15, or 26—every other day, three times per week. The mice were monitored and euthanized after 24 days of treatment. […]. […] […].

MOLM14 xenografts = assay: In vivo tumorigenic assay using xenografts; design: species or system NOD/SCID mice; conditions: 2 mg/kg intraperitoneally three times per week, two weeks
Method: Six-week-old male NOD.CB17-Prkdc^scid/J (NOD/SCID) mice (Jackson Labs, Bar Harbor, Me., USA) were used as the human-in-mouse xeno-transplantation model. MOLM14 cells (1×10^7 cells) were injected into the subcutaneous space on the left flank of the mice. Once xenografts reached a size of 100 mm^3, Brusatol and analogs (14, 15, 26, 31) at 2 mg/kg body weight or PBS were injected intraperitoneally three times per week. Body weight and tumor size were monitored before every injection. After treatment for two weeks, the mice were euthanized by CO2 inhalation and the tumors were carefully excised. The tumor volume (mm^3) was measured and calculated using the formula (a×b×b)/2 (a, the largest diameter of two measurements; b, the smallest diameter of two measurements).

[11] = system: 13 cell lines representing a range of hematologic malignancies; assay: Cell viability in panel of hematologic malignancy derived cell lines; conditions: 100 nM, 72 hours
Method: Cell viability was determined after 72 hours by detecting luminescence. ALL, acute lymphoblastic leukemia; BL, Burkitt's lymphoma; DLBCL, diffuse large B-cell lymphoma; MCL, mantle cell lymphoma; AML, acute myeloid leukemia; MM, multiple myeloma; LCLs, lymphoblastoid cell lines.
(§2) 5000 cells as indicated were cultured in 96-well plate with 100 μl of media. On the next day, Brusatol or associated analogs were added once to the cells without media change. After treatment, the cells were incubated with 100 μl buffer for 10 minutes at room temperature following the instructions of CellTiter-Glo kit (Promega, Madison, Wis.). Luminescence was detected using a multi-mode reader Cytation 5 (BioTek, Winooski, Vt.). Brusatol or its analogs are dissolved in 100% ethanol and diluted in 1×PBS for treatment. Two independent experiments done in duplicates were performed.

[12] = 60 min
[13] = 60 min; remark: listed apart in the source
[14] = not given; remark: listed apart in the source
[15] = system: MOLT-4, SU-DHL-6, SU-DHL-10, RPMI-8226, and LCL1; assay: Cell viability in five additional cell lines; conditions: MOLT-4, SU-DHL-6, SU-DHL-10, RPMI-8226, LCL1
Method: as §2
To investigate their inhibitory activities on the growth of EBV-associated lymphomas and other types of lymphomas, conjugates were first investigated for their effects on the viability of Raji cells, a Burkitt's lymphoma (BL) cell line, when treated at 100 nM for 72 h. […] These cell lines represent the cell models of a range of hematologic malignancies.

[16] = 5 mg/kg intraperitoneally every other day
[17] = 10 mg/kg intraperitoneally every other day

COC(=O)[C@@]12OC[C@]34C([C@@H](O)[C@@H]1O)[C@@]1(C)CC(=O)C(O)=C(C)[C@@H]1C[C@H]3OC(=O)[C@H](OC(=O)C=C(C)C)[C@@H]24 (stereo partly drawn) [Brusatol, methyl (1R,2S,3S,3aS,3a1R,4R,6aR,7aR,11aS)-1,2,9-trihydroxy-8,11a-dimethyl-4-((3-methylbut-2-enoyl)oxy)-5,10-dioxo-1,4,5,6a,7,7a,10,11,11a,11b-decahydro-2H-3,3a1-(epoxymethano)dibenzo[de,g]chromene-3(3aH)-carboxylate]
parent detected after incubation in mouse liver microsomes (area %) [1]: 40% | cytotoxicity at 0.1 µM (SU-DHL-4 cells [2]): > 80% | cells in the sub-G1 phase (HL-60 cells): 7.63% | cells in the sub-G1 phase (K562 cells): 3.19% | cells in the sub-G1 phase (SU-DHL-4 cells [3]): 67.9% | cells in the sub-G1 phase (Raji cells [4]): 68.4% | cytotoxicity at 0.1 µM (Raji cells [5]; Homo sapiens, 100 nM, 48 hours post-treatment, read-out: viability of cells inhibited): > 80% | IC50 (Raji cells [5]; Homo sapiens, 5000 cells, 72 hours, read-out: half-maximal inhibitory concentration (IC50)): 2 to 6 nM | fold more sensitive (IC50), MOLM14 and SU-DHL-4 compared to HL60 and K562 [6]: about 10 fold | Plasma stability remaining % at 60 min, human (Plasma stability [7]): 91% | Plasma stability remaining % at 60 min, rat (Plasma stability [8]): 100% | Stability in simulated gastric fluid (% at 4 h) [9]: 109% | protein expression of AKT1, GSK3, and mTOR (in words) (AKT1, GSK3, and mTOR): significantly reduced | IC50 (LCL1 cells): 2 to 6 nM | Stability in simulated intestinal fluid (% at 4 h) [10]: 100% | mice survived (of four) (NOD/SCID mice; [16]): three | survival (NOD/SCID mice; [16]): 75%

COC(=O)[C@@]12OC[C@]34C([C@@H](O)[C@@H]1O)[C@@]1(C)CC(=O)C(OC(=O)CNC(=O)OC(C)(C)C)=C(C)[C@@H]1C[C@H]3OC(=O)[C@H](OC(=O)C=C(C)C)[C@@H]24 (stereo partly drawn) [Compound 15, methyl (1R,2S,3S,3aS,3a1R,4R,6aR,7aR,11aS)-9-(((tert-butoxycarbonyl)glycyl)oxy)-1,2-dihydroxy-8,11a-dimethyl-4-((3-methylbut-2-enoyl)oxy)-5,10-dioxo-1,4,5,6a,7,7a,10,11,11a,11b-decahydro-2H-3,3a1-(epoxymethano)dibenzo[de,g]chromene-3(3aH)-carboxylate]
tumor size response (in words) (MOLM14 xenografts): strong and rapid inhibitory response | activity on viability of Raji cells (in words) (Raji cells [5]): moderate inhibition | Stability in simulated gastric fluid (% at 4 h) [9]: 25% | inhibition of cell viability (in words) [11]: significantly inhibit cell viability | Stability in simulated intestinal fluid (% at 4 h) [10]: 42% | mice survived (of four) (NOD/SCID mice; [16]): two | survival (NOD/SCID mice; [16]): 50% | toxicity in vivo (in words) (NOD/SCID mice; [17]): obviously lethal for the majority of mice within the first 4 days | survival (NOD/SCID mice; [17]): 0%

COC(=O)[C@@]12OC[C@]34C([C@@H](O)[C@@H]1O)[C@@]1(C)CC(=O)C(OC(=O)C[C@H](C)N)=C(C)[C@@H]1C[C@H]3OC(=O)[C@H](OC(=O)C=C(C)C)[C@@H]24 (stereo partly drawn) [Compound 26, methyl (1R,2S,3S,3aS,3a1R,4R,6aR,7aR,11aS)-9-(((S)-3-aminobutanoyl)oxy)-1,2-dihydroxy-8,11a-dimethyl-4-((3-methylbut-2-enoyl)oxy)-5,10-dioxo-1,4,5,6a,7,7a,10,11,11a,11b-decahydro-2H-3,3a1-(epoxymethano)dibenzo[de,g]chromene-3(3aH)-carboxylate]
percentage of brusatol converted from 26, rat plasma [12]: 60% | parent detected after incubation in mouse liver microsomes (area %) [1]: 87% | percentage of brusatol converted from 26, human plasma [13]: 47% | Stability in simulated gastric fluid (% at 4 h): 97% | Stability in simulated intestinal fluid (% at 4 h) [14]: 76% | mice survived (of four) (NOD/SCID mice; [16]): four | toxicity in vivo (in words) (NOD/SCID mice; [16]): did not show any obvious signs of toxicity | toxicity in vivo (in words) (NOD/SCID mice; [17]): did not show any obvious signs of toxicity

COC(=O)[C@@]12OC[C@]34C([C@@H](O)[C@@H]1O)[C@@]1(C)CC(=O)C(OCC(=O)NCCN)=C(C)[C@@H]1C[C@H]3OC(=O)[C@H](OC(=O)C=C(C)C)[C@@H]24 (stereo partly drawn) [Compound 40, methyl (1R,2S,3S,3aS,3a1R,4R,6aR,7aR,11aS)-9-(2-((2-aminoethyl)amino)-2-oxoethoxy)-1,2-dihydroxy-8,11a-dimethyl-4-((3-methylbut-2-enoyl)oxy)-5,10-dioxo-1,4,5,6a,7,7a,10,11,11a,11b-decahydro-2H-3,3a1-(epoxymethano)dibenzo[de,g]chromene-3(3aH)-carboxylate]
activity on viability of Raji cells (in words) (Raji cells [5]): moderate activity | activity on five additional cell lines (in words) [15]: moderate to good activities
